# Data from publication PMC6299835 (Toxicon : official journal of the International Society on …, 2018).
# pEC50: −log10 of the molar value. “Also recorded” adds a separate entry of the source. No end group written: not given here.
# Assays:
# MrgprC11 = target: T1, MrgprC11 (Mus musculus, UniProt Q8CIP3); format: cell-based
# T1 sequence (Q8CIP3 1-322): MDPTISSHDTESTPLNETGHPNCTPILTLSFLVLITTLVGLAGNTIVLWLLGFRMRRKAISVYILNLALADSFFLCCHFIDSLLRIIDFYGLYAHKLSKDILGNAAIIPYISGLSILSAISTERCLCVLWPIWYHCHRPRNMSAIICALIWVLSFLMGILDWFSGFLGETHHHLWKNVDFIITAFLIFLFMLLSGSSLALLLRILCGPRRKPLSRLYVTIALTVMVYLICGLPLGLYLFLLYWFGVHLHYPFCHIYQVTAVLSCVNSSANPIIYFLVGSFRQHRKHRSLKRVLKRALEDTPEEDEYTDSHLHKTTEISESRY
# human MrgprX1 (hMrgprX1) = human MrgprX1 (hMrgprX1) (Homo sapiens, UniProt Q96LB2); assay: cell-based; format: cell-based
# human MrgprX1 (hMrgprX1), sequence (Q96LB2 whole entry, looked up): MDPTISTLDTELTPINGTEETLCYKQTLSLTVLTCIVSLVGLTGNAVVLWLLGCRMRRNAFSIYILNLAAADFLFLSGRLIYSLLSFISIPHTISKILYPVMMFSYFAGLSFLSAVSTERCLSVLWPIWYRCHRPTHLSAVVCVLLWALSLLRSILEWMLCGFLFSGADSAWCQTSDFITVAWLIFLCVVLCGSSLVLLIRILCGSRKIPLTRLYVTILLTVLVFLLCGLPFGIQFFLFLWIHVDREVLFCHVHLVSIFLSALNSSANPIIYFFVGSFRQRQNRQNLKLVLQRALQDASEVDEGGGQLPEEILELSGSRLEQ
# [1] = system: hMrgprX1;Mrgpr-cluster∆−/− transgenic mouse; details: in vivo
# mice = details: mouse, in vivo; cited from earlier work
substance,measurement,setting,value
HSGFLLAWSGPRNRFVRF-NH2 [CNF-Vc1],Activation of MrgprC11,MrgprC11,activates
same,Activation of hMrgprX1,human MrgprX1 (hMrgprX1),activates
same,pEC50,human MrgprX1 (hMrgprX1),5.74
same,Itch-related scratching after intradermal cheek injection of peptide,[1],induces significant scratching
same,Behaviour of mice after intracranial injection,mice,renders mice unable to move; also recorded: hypoactive behavior
